The record followed here is patent EP4793292A1, “POLYPEPTIDE DERIVATIVE, PHARMACEUTICAL COMPOSITION THEREOF AND USE THEREOF” (Biocells (Beijing) Biotech Co., Ltd., priority 2023, dated 2025).

Series [1] can be described thus: Determination of the half-life of polypeptides in rats (plasma LC-MS/MS). More on the design: AUClast (0-120 min): unit not given here. The note with it: male SD rats, intravenous 4 mg/kg; for level at 0.5 h / half-life: rat, plasma; for level at 0.5 h: read-out: 30 min blood drug concentration. Type of series: in vivo. The method, then:
Plasma sample collection method: 2 male SD rats (280-300 g) were intravenously injected with PW5, PW6, PW182, and PW337 respectively, the pure peptide dose was 4 mg/kg, and the dosing volume was 2 mL/kg. At 0.5 min, 2 min, 5 min, 10 min, 15 min, 30 min, 60 min, and 120 min after intravenous injection of the drug via the tail vein, blood (400 µL/time) was collected through an indwelling jugular vein catheter into anticoagulant tubes containing EDTA-K2, and 100x protease inhibitor (1:50, v:v; Roche, 11873580001) was added. Whole blood samples were placed on ice and centrifuged (3200 g, 4°C, 10 min) within 1 hour after blood collection. Plasma was taken into a pre-cooled centrifuge tube, protease inhibitor (1:50, v:v) was added again, mixed homogeneously, and stored at -80°C.
Plasma sample processing method: Plasma samples were pipetted into a 96-well plate (50 µL/well), pure methanol (300 µL/well) was added, and mixed by vortexing (1500 rpm, 10 min). Centrifuged (4800 g, 4°C, 10 min), the supernatant was taken into a new 96-well plate (100 µL/well), a 20% aqueous methanol solution containing 0.2% formic acid (100 µL/well) was added, and mixed by vortexing (1500 rpm, 3 min). 10.0 µL was injected for LC-MS/MS analysis to obtain the drug concentration in the samples. Instrument model: (Waters TQ-XS) Chromatographic column: SHIMADZU Shim-Pack Scepter Claris C4-300 (2.1×50 mm, 1.9 µm) Detection results: Table 3. Half-life, blood drug concentration, and AUC data of the conjugates

Another series concerns SH-SY5Y cells. Briefly: Axonal growth of RA-differentiated SH-SY5Y cells on proteoglycan (ACAN) coating. Particulars: PW polypeptide 2.5 µM, 72 h, proteoglycan (ACAN)-coated plate, FIG. 1. Format: cell-based, human. The method, then:
Therefore, RA-induced differentiated SH-SY5Y can be used to simulate neuronal axonal growth in vitro and to test the effects of PW polypeptides on axonal growth.
Preparation of culture medium for SH-SY5Y: 1) DMEM/F12 + 10% FBS + 1 × penicillin-streptomycin + 1 mM sodium pyruvate; 2) DMEM/F12 + 1% FBS + 1 × penicillin-streptomycin + 1 mM sodium pyruvate. Preparation of 50 mM retinoic acid stock solution: 15.02 mg of retinoic acid was weighed and dissolved in 1 mL of dimethyl sulfoxide (DMSO), aliquoted, and frozen at -80°C. Proteoglycan (ACAN/CSPG1) is a type of chondroitin sulfate proteoglycan (CSPG). Preparation of 1 mg/mL proteoglycan stock solution: 1 mg of ACAN solid was dissolved in 1 mL of distilled water, aliquoted, and frozen at -80°C. Preparation of PW polypeptide solution for cells (1 mM): the corresponding mass of polypeptide powder was weighed, dissolved in PBS and filtered through a 0.2 µm filter membrane, aliquoted, and frozen at -20°C.
The 1 mg/mL proteoglycan was diluted to 250 µg/mL with distilled water to coat a 24-well cell culture plate: each well was coated with 3 droplets of ACAN, 2 µL per droplet. Using the culture medium containing 10% FBS, SH-SY5Y cells were seeded in the proteoglycan-coated 24-well plate (20,000 cells/well) and incubated (37°C, 5% CO2) for 20 h. The medium was replaced with a culture medium containing 1% FBS, and PW polypeptide (2.5 µM) or an equal volume of PBS solution was added. After incubation for 72 h, the cells were fixed with 4% paraformaldehyde (room temperature, 30 min), and cell morphology was photographed and recorded using a 10× optical microscope. 20-30 cells were randomly selected under each field of view, and axonal length was measured using Image J-SNT.
Data analysis: All measured axonal lengths within each proteoglycan-coated range were averaged to serve as one data point. One-way analysis of variance and Tukey's test were used to compare the differences between groups. P<0.05 was considered as a significant difference.

Starred links: 1 amine or outer side, 2 acyl side, 3 side chain; linkers in the order of their positions; H or OH if unused. Positions of bridges follow the written chain, without caps; N, C: chain ends. Non-standard residues stand in square brackets, D forms with d. Residues, ends and D or L forms follow the SMILES beside them. Groups on a side chain read outwards from the residue. No end group written: not given here. *: point of attachment. C18 diacid = O=C(O)CCCCCCCCCCCCCCCCC(=O)*; γGlu = O=C(O)[C@H](CCC(=O)[*:2])N[*:1]; Lauroyl = CCCCCCCCCCCC(=O)*; AEEA = NCCOCCOCC(=O)O

For the compound `CC[C@H](C)[C@H](NC(=O)[C@H](CO)NC(=O)[C@H](CCC(=O)O)NC(=O)[C@H](Cc1ccc(O)cc1)NC(=O)[C@H](CCC(=O)O)NC(=O)[C@H](CCC(N)=O)NC(=O)[C@H](CO)NC(=O)[C@H](CC(C)C)NC(=O)[C@H](CCCCNC(=O)COCCOCCNC(=O)COCCOCCNC(=O)CC[C@H](NC(=O)CCCCCCCCCCCCCCCCC(=O)O)C(=O)O)NC(=O)[C@H](CC(C)C)NC(=O)[C@H](CO)NC(=O)[C@H](CC(=O)O)NC(=O)[C@H](CC(N)=O)NC(=O)[C@H](C)NC(=O)[C@H](CCCCN)NC(=O)[C@H](CC(C)C)NC(=O)[C@H](CCCNC(=N)N)NC(=O)[C@H](CCC(=O)O)NC(=O)[C@H](CCSC)NC(=O)[C@H](Cc1c[nH]cn1)NC(=O)[C@H](CCC(=O)O)NC(=O)[C@H](C)NC(=O)[C@H](CCSC)NC(=O)[C@H](CC(=O)O)NC(=O)[C@H](CCCNC(=N)N)NC(=O)[C@H](CCCNC(=N)N)NC(=O)[C@H](CCCNC(=N)N)NC(=O)[C@H](CCC(N)=O)NC(=O)[C@H](CCCNC(=N)N)NC(=O)[C@H](CCCNC(=N)N)NC(=O)[C@H](CCCCN)NC(=O)[C@H](CCCCN)NC(=O)[C@H](CCCNC(=N)N)NC(=O)CN)C(N)=O` [PW-337], in series [1], the “AUClast (0-120 min)” value came to 4157725 and the half-life (usually how long it takes for the measured level to halve) stood at 1.59 h. Also, the level at 0.5 h in series [1] (30 min after injection) stood at 56.8 µg/mL.
For the compound “GRKKRRQRRRCDMAEHTERLKANDSLKLSQEYESI-NH2 [PW-6, reference compound]”, the “effect of promoting axonal growth compared with the scrambled polypeptide (Scr, negative control)” value in the series on SH-SY5Y cells is on record as “significant effect of promoting axonal growth”. In series [1], the “AUClast (0-120 min)” value was 1787 and the half-life turned out to be 0.0367 h. In addition, the “30 min blood drug concentration” value in series [1] (30 min after injection) amounted to 0 ng/mL.
On to `CC[C@H](C)[C@H](NC(=O)[C@H](CO)NC(=O)[C@H](CCC(=O)O)NC(=O)[C@H](Cc1ccc(O)cc1)NC(=O)[C@H](CCC(=O)O)NC(=O)[C@H](CCC(N)=O)NC(=O)[C@H](CO)NC(=O)[C@H](CC(C)C)NC(=O)[C@H](CCCCNC(=O)COCCOCCNC(=O)COCCOCCNC(=O)CC[C@H](NC(=O)CCCCCCCCCCCCCCCCC(=O)O)C(=O)O)NC(=O)[C@H](CC(C)C)NC(=O)[C@H](CO)NC(=O)[C@H](CC(=O)O)NC(=O)[C@H](CC(N)=O)NC(=O)[C@H](C)NC(=O)[C@H](CCCCN)NC(=O)[C@H](CC(C)C)NC(=O)[C@H](CCCNC(=N)N)NC(=O)[C@H](CCC(=O)O)NC(=O)[C@@H](NC(=O)[C@H](Cc1c[nH]cn1)NC(=O)[C@H](CCC(=O)O)NC(=O)[C@H](C)NC(=O)[C@H](CCSC)NC(=O)[C@H](CC(=O)O)NC(=O)[C@H](CCCNC(=N)N)NC(=O)[C@H](CCCNC(=N)N)NC(=O)[C@H](CCCNC(=N)N)NC(=O)[C@H](CCC(N)=O)NC(=O)[C@H](CCCNC(=N)N)NC(=O)[C@H](CCCNC(=N)N)NC(=O)[C@H](CCCCN)NC(=O)[C@H](CCCCN)NC(=O)[C@H](CCCNC(=N)N)NC(=O)CN)[C@@H](C)O)C(N)=O` [PW-182] (H-GRKKRRQRRRDMAEHTERLKANDSLK([AEEA-AEEA-γGlu-C18 diacid])LSQEYESI-NH2), for which, in series [1], the “AUClast (0-120 min)” value is given as 4927113 and the half-life amounted to 1.03 h. In series [1] (30 min after injection), the level at 0.5 h worked out at 64.4 µg/mL.
For the compound “PW-261: polypeptide derivative, SEQ ID NO: 51 (G[dR]KKR[dR]Q[dR]RRDMAEHTERLK([AEEA-γGlu-Lauroyl])ANDSLKLSQEYESI-NH2; N-terminus assumed; SMILES CCCCCCCCCCCC(=O)N[C@@H](CCC(=O)NCCOCCOCC(=O)NCCCC[C@H](NC(=O)[C@H](CC(C)C)NC(=O)[C@H](CCCNC(=N)N)NC(=O)[C@H](CCC(=O)O)NC(=O)[C@@H](NC(=O)[C@H](Cc1c[nH]cn1)NC(=O)[C@H](CCC(=O)O)NC(=O)[C@H](C)NC(=O)[C@H](CCSC)NC(=O)[C@H](CC(=O)O)NC(=O)[C@H](CCCNC(=N)N)NC(=O)[C@H](CCCNC(=N)N)NC(=O)[C@@H](CCCNC(=N)N)NC(=O)[C@H](CCC(N)=O)NC(=O)[C@@H](CCCNC(=N)N)NC(=O)[C@H](CCCNC(=N)N)NC(=O)[C@H](CCCCN)NC(=O)[C@H](CCCCN)NC(=O)[C@@H](CCCNC(=N)N)NC(=O)CN)[C@@H](C)O)C(=O)N[C@@H](C)C(=O)N[C@@H](CC(N)=O)C(=O)N[C@@H](CC(=O)O)C(=O)N[C@@H](CO)C(=O)N[C@@H](CC(C)C)C(=O)N[C@@H](CCCCN)C(=O)N[C@@H](CC(C)C)C(=O)N[C@@H](CO)C(=O)N[C@@H](CCC(N)=O)C(=O)N[C@@H](CCC(=O)O)C(=O)N[C@@H](Cc1ccc(O)cc1)C(=O)N[C@@H](CCC(=O)O)C(=O)N[C@@H](CO)C(=O)N[C@H](C(N)=O)[C@@H](C)CC)C(=O)O)”, in the series with SH-SY5Y cells, the “effect of promoting axonal growth compared with the scrambled polypeptide (Scr, negative control)” value is recorded as “significant effect of promoting axonal growth” and the “promoting effect on axonal growth compared with PW6” value was “no significant difference”.
In the case of `CC[C@H](C)[C@H](NC(=O)[C@H](CO)NC(=O)[C@H](CCC(=O)O)NC(=O)[C@H](Cc1ccc(O)cc1)NC(=O)[C@@H]1CCC(=O)NCCCC[C@H](NC(=O)[C@H](CC(C)C)NC(=O)[C@H](CO)NC(=O)[C@H](CC(=O)O)NC(=O)[C@H](CC(N)=O)NC(=O)[C@H](C)NC(=O)[C@H](CCCCN)NC(=O)[C@H](CC(C)C)NC(=O)[C@H](CCCNC(=N)N)NC(=O)[C@H](CCC(=O)O)NC(=O)[C@@H](NC(=O)[C@H](Cc2c[nH]cn2)NC(=O)[C@H](CCC(=O)O)NC(=O)[C@H](C)NC(=O)[C@H](CCSC)NC(=O)[C@H](CC(=O)O)NC(=O)[C@H](CS)NC(=O)[C@H](CCCNC(=N)N)NC(=O)[C@H](CCCNC(=N)N)NC(=O)[C@H](CCCNC(=N)N)NC(=O)[C@H](CCC(N)=O)NC(=O)[C@H](CCCNC(=N)N)NC(=O)[C@H](CCCNC(=N)N)NC(=O)[C@H](CCCCN)NC(=O)[C@H](CCCCN)NC(=O)[C@H](CCCNC(=N)N)NC(=O)CN)[C@@H](C)O)C(=O)N[C@@H](CC(C)C)C(=O)N[C@@H](CO)C(=O)N[C@@H](CCC(N)=O)C(=O)N1)C(N)=O` [PW-170] (H-GRKKRRQRRRCDMAEHTERLKANDSLKLSQEYESI-NH2; lactam 27-31), in the series with SH-SY5Y cells, the “effect of promoting axonal growth compared with the scrambled polypeptide (Scr, negative control)” value was “significant effect of promoting axonal growth” and the “promoting effect on axonal growth compared with PW6” value is reported as “no significant difference”.
